One may read the IC50 as the concentration that gives 50% inhibition. Broadly, the inhibition is the change of the read-out against control, counted positive when it falls. The Vdss is the apparent volume that relates the amount in the body to the concentration in plasma or blood. By Ki is commonly meant a measure of affinity in units of concentration, obtained from inhibition or displacement.

Data on four molecules can be found in patent US20070232527A1, “Medicaments and methods combining a HCV protease inhibitor and an AKR competitor” (priority 2005, published 2007).

In brackets after ≈: the same amount, converted by molar mass. Where two headings read alike, the source gives them in different places.

Data set [1] concerns the target T1, AKR1C2 (Homo sapiens, UniProt P52895).
T1 sequence (P52895 1-323): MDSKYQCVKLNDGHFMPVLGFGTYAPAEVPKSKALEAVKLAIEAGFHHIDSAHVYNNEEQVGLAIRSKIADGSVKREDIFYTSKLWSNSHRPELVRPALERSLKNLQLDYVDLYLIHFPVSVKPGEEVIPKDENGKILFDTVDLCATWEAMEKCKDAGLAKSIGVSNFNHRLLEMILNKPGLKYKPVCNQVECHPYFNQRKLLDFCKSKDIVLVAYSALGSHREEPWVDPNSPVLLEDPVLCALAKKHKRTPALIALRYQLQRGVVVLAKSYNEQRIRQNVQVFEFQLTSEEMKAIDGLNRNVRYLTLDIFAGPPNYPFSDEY
The following applies: tibolone as a substrate; cited from earlier work.

For data set [2], the target named is T2, AKR1C3 (Homo sapiens, UniProt P42330).
T2 sequence (P42330 1-323): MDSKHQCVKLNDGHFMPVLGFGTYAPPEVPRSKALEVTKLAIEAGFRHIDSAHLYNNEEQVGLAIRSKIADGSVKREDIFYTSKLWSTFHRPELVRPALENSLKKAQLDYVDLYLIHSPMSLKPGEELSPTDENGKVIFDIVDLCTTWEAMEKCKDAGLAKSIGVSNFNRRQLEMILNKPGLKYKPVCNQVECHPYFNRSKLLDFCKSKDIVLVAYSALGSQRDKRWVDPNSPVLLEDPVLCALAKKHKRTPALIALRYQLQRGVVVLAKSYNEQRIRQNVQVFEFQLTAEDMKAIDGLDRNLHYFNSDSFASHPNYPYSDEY
The settings on record: tibolone as a substrate; cited from earlier work.

The next data set relates to Human liver S9. Put plainly: Inhibition of metabolism of 14C-Formula Ia to Formula Ia′ in human liver S9. Format: in vitro ADME. The following applies: S9; concentration not given.
For data set [3], the system named is human liver cytosol. As to the kind of experiment: Inhibition of metabolism of 14C-Formula Ia to Formula Ia′ in human liver cytosol.
Protocol: (§3) All incubations contained 3 mM magnesium chloride and NADPH-generating system in 0.5 mL of 50 mM potassium phosphate buffer, pH 7.4. Prior to the addition of drug, incubation mixtures were preincubated for 2 min at 37° C. […] The incubation mixtures were vortexed and centrifuged (˜10,000 g) at 4° C. for 10 min; supernatants were analyzed by HPLC coupled with radiometric detector. Heat activated S9 cofactor or mitochondria were used as control. For LC-MS analysis, supernatants were concentrated in SpeedVac for 3 hrs. Incubation volumes were 0.5 mL and the final concentration of the organic solvents in the incubation system was less than 1% (v/v).
(§4) The mobile phase consisted of 10 mM ammonium acetate adjusted to pH 7.0 with 1% ammonium hydroxide (A) and 100% methanol (B).
Data set [4] relates to cytosolic enzymes that convert Formula Ia to Formula Ia′. Put plainly: in vitro. The following applies: human.
Protocol: as §3, §4
The test system of data set [5] is cytosolic enzymes that form the metabolite of Formula Ia. Put plainly: in vitro. The settings on record: monkey.
For data set [6] the following is noted: in vivo; cited from earlier work.
The test system of data set [7] is human liver cytosol. Put plainly: Incubation of Formula Ia or Formula XXVII in human liver cytosol with AKR competitor (LC-MS, M+2 metabolite). Format: in vitro ADME. The procedure: Prior to the addition of drug, the incubation mixture was preincubated for 2 min at 37° C. […] Human liver microsomes and cytosol without NADPH served as negative controls. Parallel incubations with the compound of Formula Ia were used as positive controls. […] All incubations were performed as described previously for human liver cytosols. […] Parallel incubations with the compound of Formula Ia were used as positive controls.

Data set [8] in a line: In vivo inhibition study of Formula Ia with AKR competitor diflunisal, plasma PK. The following applies: cynomolgus monkeys plasma; as a function of diflunisal dose 0, 62.5, 125, 250 mg. Here is the method:
An in vivo study was conducted in cynomolgus monkeys where 200 mg Formula Ia and 0 (control), 62.5, 125, or 250 mg diflunisal (Dolobid) was administered as illustrated below. All six monkeys were first dosed with Formula Ia with blood samples collected over a 12 hr period for plasma pharmacokinetics (PK) of Formula Ia prior to administration of diflunisal (dose-escalation). Four doses of diflunisal were subsequently administered every 12 hr with Formula Ia administered at each 4th diflunisal dose after which blood samples were collected for PK assessment of Formula Ia. The following chart summarizes the timing of Formula Ia and diflunisal administration.

The nature of data set [9]: Clinical study of the effect of ibuprofen on pharmacokinetics of Formula Ia. The class given is in vivo. The following applies: human, single 400 mg dose PO fasted, alone or with ibuprofen 600 mg TID; for AUC: plasma, po, 400 mg. The procedure: The study was conducted in an open-label, randomized, 3-period, 2-sequence crossover manner (FIG. 6). During Period 1, all 12 subjects were administered a single 400 mg dose of Formula Ia. During Periods 2 and 3, subjects received multiple doses of ibuprofen (600 mg TID) in a randomized sequence. The ibuprofen was administered beginning on Day 1 (3 days prior to Formula Ia administration) and continued through Day 6. A single dose of Formula Ia was administered on Day 4 (2 hours after administration of the AM dose of ibuprofen). Plasma samples for pharmacokinetic and metabolite analyses of Formula Ia was collected at predose (0 hour), 0.5, 1, 1.5, 2, 2.5, 3, 4, 5, 6, 7, 8, 9, 10, 12, 24, 36, 48, and 72 hour postdose for each period. (The 48 and 72 hour postdose samples for Period 1 was collected in an outpatient setting). In Periods 2 and 3, additional blood samples were collected immediately prior to dosing of the Formula Ia on Day 4 and two hours post ibuprofen administration on Day 5 for determination of ibuprofen concentration.
Treatment A: Formula Ia (4×100 mg capsules); single dose, PO following an overnight fast, administered on Day 1 or Period 1.
Treatment C: Ibuprofen 600 mg; PO, TID from Day 1 to Day 6 Formula Ia (4×100 mg capsules); single dose, PO following an overnight fast, administered on Day 4 (2 hours after the AM ibuprofen dose).
Subjects received a single dose of Formula Ia on Day 1 of Period 1. In Period 2 and Period 3, subjects were treated for 6 days with ibuprofen and received a single dose of Formula Ia on Day 4 of each period. There were at least 7 days between administration of Formula Ia in Period 1 and Period 2 and at least 14 days between administration of Formula Ia in Period 2 and 3.
The proportion of subjects with plasma concentrations above the in vitro IC50 and IC90 for the HCV replicon at each time point was determined. This plasma concentration data was used to estimate the following primary pharmacokinetic variables for the determination of bioavailability comparisons: • AUC—Area under the plasma concentration-time. • Cmax—Maximum observed plasma concentration. • Tmax—Time to maximum observed plasma concentration. • t1/2—Terminal phase half-life.

Data set [10] addresses T1, AKR1C2. As to the kind of experiment: Incubation with S9 fraction of recombinant human AKR1C2. The class given is in vitro ADME. The following applies: 20 μM 14C-radiolabeled compound; S9 2.5 mg protein/mL; NADPH. The arrangement: made in house. The procedure: (§1) Recombinant human AKRs (AKR1C2, AKR1C3 and AKR1C4) were grown, sonicated and centrifuged at ˜10,000 g to obtain S9 fractions. Incubations of ^14C-radiolabeled compound of Formula Ia, ^14C-radiolabeled compound of Formula Ib and ^14C-radiolabeled compound of Formula Ic (all at 20 μM) with S9-fractions from three recombinant human AKRs (2.5 mg protein/mL) were conducted as described above. [drawing 161]
(§2) The samples were analyzed by HPLC-coupled with radiometric detector and confirmed by LC-MS.

The target in data set [11] is T2, AKR1C3. Put plainly: Incubation with S9 fraction of recombinant human AKR1C3. The class given is in vitro ADME. Also on record: made in house. The following applies: 20 μM 14C-radiolabeled compound; S9 2.5 mg protein/mL; NADPH. Here is the method: as §1, §2

Turning to `CC(CCC(=O)O)C1CCC2C3C(O)CC4CC(O)CCC4(C)C3CCC12C` (stereo not drawn) [5beta-cholanic acid 3alpha, 7-alpha-diol], the results for the IC50 at AKR1C2 [1] and on AKR1C3 [2] were 0.21 µM and 74.4 µM, respectively.

`O=[N+]([O-])c1ccc(OP(=O)(O)Oc2ccc([N+](=O)[O-])cc2)cc1` [BNPP, bis(4-nitrophenyl)-phosphate]: the “inhibited formation of the compound of Formula Ia′” value in the data set with Human liver S9 is given as 57.4%; in the data set with human liver cytosol [3] (cytosol, concentration not given) it was 63.4%. Moreover, the “% Inhibition on Metabolite Formation of Compound Formula Ia” value with human liver cytosol [3] (Table 4, human liver cytosol, inhibitor 1000 μM, 2 hr incubation) was 63.4%.

With `O=C(O)c1cc(-c2ccc(F)cc2F)ccc1O` [Diflunisal], in data set [4] (pH 7.4), the 50% inhibitory concentration (IC50) at 120 min was determined as 1 µg/mL (≈ 4 µM). In addition, the inhibition at 2 h, 200 µM in [4] (pH 7.4, % of Inhibition on Metabolite Formation of Compound Formula Ia) was 89.4%. For the same molecule, the half-maximal inhibitory concentration (IC50) in data set [5] came out at 11 µM. Besides, in data set [6], the Vdss is on record as 0.1 L/kg and the protein binding result is “about 99%”. At human liver cytosol [3] (human cytosol, assuming the liver to plasma ratio equals 1), the inhibition constant Ki was 0.5 µg/mL.

Consider `CC(C)(C)NC(=O)N[C@H](C(=O)N1C[C@H]2[C@@H]([C@H]1C(=O)NC(CC1CCC1)C(=O)C(N)=O)C2(C)C)C(C)(C)C` (stereo partly drawn) [Formula Ia, (1R,5S)—N-[3-Amino-1-(Cyclobutylmethyl)-2,3-Dioxopropyl]-3-[2(S)-[[[(1,1-Dimethylethyl)Amino]Carbonyl]Amino]-3,3-Dimethyl-1-Oxobutyl]-6,6-Dimethyl-3-Azabicyclo[3.1.0]Hexan-2(S)-Carboxamide], for which the “1ST PARENT PEAK AREA” value was found to be 6.19E+07 in the data set on human liver cytosol [7] (HL Cytosol w/ NADPH + 50 uM Mefenamic acid); 6.33E+07 in the data set with human liver cytosol [7] (HL Cytosol w/ NADPH + 100 uM Flufenamic acid); 6.23E+07 in the data set with human liver cytosol [7] (HL Cytosol w/ NADPH + 100 uM Phenolphthalein); 6.10E+07 with human liver cytosol [7] (HL Cytosol w/ NADPH + 200 uM Diflunisal); 3.95E+07 with human liver cytosol [7] (HL Cytosol w/ NADPH Vehicle Control (no inhibitor)); 7.41E+07 with human liver cytosol [7] (HL Cytosol w/o NADPH, 20 μM, 60 min). Also, the “AUC ratio (Formula Ia′ to AUC for the compound)” value in data set [8] was “decline”. Further, the AUC in data set [9] (read-out: AUC(all), Mean (% CV)) stood at 2040 ng·h/mL; in data set [9] (read-out: AUC(l), Mean (% CV)), 2070 ng·h/mL. In data set [9] (plasma Formula Ia, read-out: AUC(last), Mean (% CV)), the AUC(0-t) was found to be 2000 ng·h/mL. Also, the Cmax in data set [9] (plasma Formula Ia, read-out: Cmax, Mean (% CV)) was 571 ng/mL. The MRT in data set [9] (plasma Formula Ia, read-out: MRT(l), Mean (% CV)) was determined as 6.57 h. Also, the Tmax in [9] (plasma Formula Ia, read-out: Tmax (median)) was 1.75 h. In addition, the half-life in [9] (plasma Formula Ia, read-out: t1/2, Mean (% CV) (converted)) was 9.11 h. Moreover, the “metabolism by recombinant AKR1C2” value at AKR1C2 [10] was “yielded compound of Formula Ia′”. For the same molecule, the “metabolism by recombinant AKR1C3” value at AKR1C3 [11] is listed as “yielded compound of Formula Ia′”.
